Measured values as given in ChEMBL document CHEMBL1201862, “PubChem BioAssay data set” (2004).
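All cell lines were grown in 96-well plates and treated with compound for 48 hours. At the GI50, growth is halved.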 The source made the active and inactive calls. No stated cut-off is given here; in the data, active = GI50 up to about 1.1 µM and inactive = higher.

Tests used:
Assay in all cases: NCI anticancer screen, dose series, 48 h
786-0 = system: 786-0
HL-60 = system: HL-60
HOP-62 = system: HOP-62
HT-29 = system: HT-29
K562 = system: K562
LOX IMVI = system: LOX IMVI
M14 = system: M14
MCF7 = system: MCF7
MDA-N = system: MDA-N
OVCAR-3 = system: OVCAR-3
OVCAR-4 = system: OVCAR-4
OVCAR-5 = system: OVCAR-5
OVCAR-8 = system: OVCAR-8
SK-MEL-2 = system: SK-MEL-2
SK-OV-3 = system: SK-OV-3
SNB-75 = system: SNB-75
SW-620 = system: SW-620
UACC-62 = system: UACC-62
UO-31 = system: UO-31
HCT-116 = system: HCT-116

Compound	GI50 (786-0)	GI50 (HL-60)	GI50 (HOP-62)	GI50 (HT-29)	GI50 (K562)	GI50 (LOX IMVI)	GI50 (M14)	GI50 (MCF7)	GI50 (MDA-N)	GI50 (OVCAR-3)	GI50 (OVCAR-4)	GI50 (OVCAR-5)	GI50 (OVCAR-8)	GI50 (SK-MEL-2)	GI50 (SK-OV-3)	GI50 (SNB-75)	GI50 (SW-620)	GI50 (UACC-62)	GI50 (UO-31)	GI50 (HCT-116)
CC(C)(C)COC1C2(OCCO2)C2CCC1(C)C2(C)C (stereo unspecified)	19.4 µM (inactive)	24.8 µM (inactive)	22.1 µM (inactive)	32.7 µM (inactive)	18.5 µM (inactive)	19.2 µM (inactive)	44 µM (inactive)	19.1 µM (inactive)	43.2 µM (inactive)	17.6 µM (inactive)	45 µM (inactive)	28.9 µM (inactive)	23.1 µM (inactive)	23.4 µM (inactive)	66.2 µM (inactive)	24.1 µM (inactive)	19.7 µM (inactive)	54.7 µM (inactive)	26.2 µM (inactive)	–
CCOP(=O)(OCC)C(C)(CC)N/C(=N\C1=NC(C(F)(F)F)(C(F)(F)F)N=C(C(F)(F)F)O1)NC(NC(C)=O)(C(F)(F)F)C(F)(F)F (stereo unspecified)	37.3 µM (inactive)	17.8 µM (inactive)	36.1 µM (inactive)	20.7 µM (inactive)	16.9 µM (inactive)	32.2 µM (inactive)	22.9 µM (inactive)	21.9 µM (inactive)	52.5 µM (inactive)	40.3 µM (inactive)	16.5 µM (inactive)	45 µM (inactive)	36.6 µM (inactive)	25.5 µM (inactive)	27.4 µM (inactive)	2.3 µM (inactive)	56.8 µM (inactive)	35.3 µM (inactive)	–	33.3 µM (inactive)
O=C1C(c2ccccc2)=C(c2ccccc2)C1(Cl)Cl	2.69 µM (inactive)	0.736 µM (active)	14.8 µM (inactive)	3.15 µM (inactive)	1.91 µM (inactive)	1.93 µM (inactive)	2.22 µM (inactive)	2.61 µM (inactive)	2.02 µM (inactive)	2.62 µM (inactive)	3.67 µM (inactive)	7.82 µM (inactive)	2.64 µM (inactive)	2.72 µM (inactive)	15.8 µM (inactive)	4.95 µM (inactive)	2.75 µM (inactive)	1.86 µM (inactive)	3.61 µM (inactive)	1.5 µM (inactive)
O=C(NCCN(CCNC(=O)c1cccc(O)c1O)CCNC(=O)c1cccc(O)c1O)c1cccc(O)c1O [TRENCAM]	5.89 µM (inactive)	8.02 µM (inactive)	6.59 µM (inactive)	5.31 µM (inactive)	5.28 µM (inactive)	1.22 µM (inactive)	5.55 µM (inactive)	9.55 µM (inactive)	9.31 µM (inactive)	2.69 µM (inactive)	0.578 µM (active)	66.2 µM (inactive)	3.15 µM (inactive)	33.2 µM (inactive)	16.7 µM (inactive)	22.2 µM (inactive)	2.4 µM (inactive)	4.78 µM (inactive)	14.9 µM (inactive)	4.2 µM (inactive)
O=C1NC(Cc2ccc(O)cc2)C(=O)NC1Cc1ccc(O)cc1 (stereo unspecified)	> 100 µM (inactive)	> 100 µM (inactive)	> 100 µM (inactive)	> 100 µM (inactive)	> 100 µM (inactive)	> 100 µM (inactive)	> 100 µM (inactive)	> 100 µM (inactive)	30.1 µM (inactive)	> 100 µM (inactive)	> 100 µM (inactive)	> 100 µM (inactive)	> 100 µM (inactive)	> 100 µM (inactive)	> 100 µM (inactive)	28.2 µM (inactive)	> 100 µM (inactive)	> 100 µM (inactive)	> 100 µM (inactive)	> 100 µM (inactive)
O=C(Cn1c(=O)oc2ccc(C(=O)c3ccc(F)cc3)cc21)c1ccc([N+](=O)[O-])cc1	33 µM (inactive)	8.2 µM (inactive)	54.5 µM (inactive)	39 µM (inactive)	28.3 µM (inactive)	34.8 µM (inactive)	13 µM (inactive)	31.7 µM (inactive)	21 µM (inactive)	–	25.5 µM (inactive)	> 100 µM (inactive)	25.8 µM (inactive)	20.2 µM (inactive)	69.8 µM (inactive)	36.9 µM (inactive)	36.7 µM (inactive)	34.2 µM (inactive)	19.6 µM (inactive)	29.6 µM (inactive)
O=C1Oc2cc(O)cc(/C=C/c3ccc(O)cc3)c2[C@@]12c1c(O)cc(O)cc1OC2c1cccc(O)c1 (stereo partly specified)	24.5 µM (inactive)	28.9 µM (inactive)	20.3 µM (inactive)	29.2 µM (inactive)	39.8 µM (inactive)	23.3 µM (inactive)	28.6 µM (inactive)	39.1 µM (inactive)	26.1 µM (inactive)	61.2 µM (inactive)	56.2 µM (inactive)	29.2 µM (inactive)	41.2 µM (inactive)	24.2 µM (inactive)	30.8 µM (inactive)	52.2 µM (inactive)	–	25.3 µM (inactive)	29.7 µM (inactive)	29 µM (inactive)
C(=N\c1ccc(-c2nc3ccccc3[nH]2)cc1)/c1cccs1	> 100 µM (inactive)	22 µM (inactive)	> 100 µM (inactive)	> 100 µM (inactive)	81.7 µM (inactive)	> 100 µM (inactive)	> 100 µM (inactive)	8.91 µM (inactive)	> 100 µM (inactive)	49.7 µM (inactive)	> 100 µM (inactive)	> 100 µM (inactive)	49.9 µM (inactive)	> 100 µM (inactive)	> 100 µM (inactive)	81.1 µM (inactive)	96.4 µM (inactive)	–	31.2 µM (inactive)	> 100 µM (inactive)
CC(C)=CCc1cc2c(cc1O)OC[C@H]1c3cc4c(cc3O[C@@H]21)OCO4	42.1 µM (inactive)	23.8 µM (inactive)	91.6 µM (inactive)	> 100 µM (inactive)	36.7 µM (inactive)	17.3 µM (inactive)	62.1 µM (inactive)	25.3 µM (inactive)	20.6 µM (inactive)	37.2 µM (inactive)	37.4 µM (inactive)	61.7 µM (inactive)	> 100 µM (inactive)	–	> 100 µM (inactive)	78.7 µM (inactive)	36.5 µM (inactive)	> 100 µM (inactive)	31.6 µM (inactive)	17.1 µM (inactive)
N=S(c1ccccc1[N+](=O)[O-])c1ccccc1[N+](=O)[O-]	1.38 µM (inactive)	0.933 µM (active)	4.65 µM (inactive)	–	–	0.76 µM (active)	2.69 µM (inactive)	0.129 µM (active)	1.36 µM (inactive)	0.839 µM (active)	0.914 µM (active)	4.13 µM (inactive)	2.14 µM (inactive)	3.9 µM (inactive)	8.63 µM (inactive)	7.94 µM (inactive)	–	3.45 µM (inactive)	1.87 µM (inactive)	1.23 µM (inactive)
CC1=NN(C(=O)c2ccccc2O)C(=O)/C1=C/c1ccc([N+](=O)[O-])cc1	0.299 µM (active)	0.508 µM (active)	0.536 µM (active)	5.97 µM (inactive)	0.0434 µM (active)	0.267 µM (active)	0.437 µM (active)	0.726 µM (active)	0.413 µM (active)	0.172 µM (active)	0.482 µM (active)	3.12 µM (inactive)	0.203 µM (active)	–	0.0966 µM (active)	0.248 µM (active)	0.738 µM (active)	0.0603 µM (active)	0.103 µM (active)	0.116 µM (active)
Cc1c(CNc2ccc(C(=O)NC(CC(=O)O)C(=O)O)cc2)ccc2nc(N)nc(N)c12 (stereo unspecified)	< 0.164 µM (active)	< 0.01 µM (active)	< 0.0103 µM (active)	< 0.01 µM (active)	0.0101 µM (active)	< 0.01 µM (active)	< 0.215 µM (active)	< 0.01 µM (active)	< 0.01 µM (active)	–	> 100 µM (inactive)	–	< 0.01 µM (active)	> 100 µM (inactive)	0.146 µM (active)	32.5 µM (inactive)	< 0.01 µM (active)	< 0.01 µM (active)	< 0.018 µM (active)	< 0.01 µM (active)
CCOC(=O)NNC(=O)NCc1ccccc1CNC(=O)NNC(=O)OCC	> 100 µM (inactive)	> 100 µM (inactive)	–	> 100 µM (inactive)	> 100 µM (inactive)	> 100 µM (inactive)	> 100 µM (inactive)	> 100 µM (inactive)	> 100 µM (inactive)	> 100 µM (inactive)	> 100 µM (inactive)	> 100 µM (inactive)	> 100 µM (inactive)	> 100 µM (inactive)	> 100 µM (inactive)	> 100 µM (inactive)	> 100 µM (inactive)	> 100 µM (inactive)	> 100 µM (inactive)	> 100 µM (inactive)
Oc1nc2nnc(COc3ccc(Cl)cc3Cl)n2nc1Cc1ccccc1	20.8 µM (inactive)	49.2 µM (inactive)	47.2 µM (inactive)	> 100 µM (inactive)	> 100 µM (inactive)	> 100 µM (inactive)	> 100 µM (inactive)	> 100 µM (inactive)	> 100 µM (inactive)	27.5 µM (inactive)	47.8 µM (inactive)	> 100 µM (inactive)	26.1 µM (inactive)	> 100 µM (inactive)	27.4 µM (inactive)	16 µM (inactive)	> 100 µM (inactive)	–	24.2 µM (inactive)	52.5 µM (inactive)
